Measured values: patent publication US20210101881A1 (Ancureall Pharmaceutical (Shanghai) Co., Ltd., priority 2018, published 2021)

These molecules were tested on MOLM13 cells (assay: Growth inhibition of CDK9-positive cell line MOLM13 in vitro (CCK8/MTT assay)). Conditions: Homo sapiens, MOLM-13; MOLM13 cells, cultured 3 to 6 days, CCK8; read-out: IC50 of the compound for inhibiting cell growth, MOLM13 cells.
Assay type: cell-based, human
Description: 1. MOLM13 cell line and cell culture MOLM13 is a CDK9-positive human acute myeloid leukemia cell line from DMSZ. Suspension culture was carried out in RPMI1640 (Gibco) medium with 10% fetal bovine serum (Gibco), 1% penicillin-streptomycin and 2 mM glutamine.
Suspended MOLM-13 cells in logarithmic growth phase were collected by centrifugation (1700 rpm, 3 minutes), the supernatant was discarded, and the cells were counted. A solution with a cell concentration of 2×10^5 cells per milliliter was formulated and inoculated in a 96-well plate (Corning) with 100 microliters per well. The plate was incubated at 37° C., 5% CO2 overnight. On the next day, the test compound was added to the cultured cells in two parallel wells. […]
The present compound and the control compounds were respectively dissolved in DMSO (Sigma).
When the solvent control well became dark yellow, the OD450 nm absorption value was measured, and the cell growth rate was calculated according to the following formula. Cell growth rate %=100*(T−T0)/(C−T0), wherein T=the optical density value of the drug-treated well—the optical density value of the blank control well, T0=the optical density value of the well before drug treatment—the optical density value of the blank control well, C=the optical density value of the solvent control well—the optical density value of the blank control well. […] The assay was repeated three times, and the data was subjected to a biological statistical analysis.

| IC50 [nM] | Structure (SMILES) |
| --- | --- |
| 100 to 1000 | CN(C)c1ccc(Nc2nccc(-n3cc(C(N)=O)c4ccccc43)n2)cc1 [Compound 75, 1-[2-(4-dimethylamino-phenylamino)-pyrimidin-4-yl]-1H-indole-3-carboxamide] |
| 10 to 100 | CN(C)CCCN(C)c1ccc(Nc2nccc(-n3cc(C(N)=O)c4ccccc43)n2)cc1 [Compound 76, 1-(2-{4-[(3-dimethylamino-propyl)-methyl-amino]-phenylamino}-pyrimidin-4-yl)-1H-indole-3-carboxamide] |
| 10 to 100 | CN(C)CCN(C)c1ccc(Nc2nccc(-n3cc(C(N)=O)c4ccccc43)n2)cc1 [Compound 77, 1-(2-{4-[(2-dimethylamino-ethyl)-methyl-amino]-phenylamino}-pyrimidin-4-yl)-1H-indole-3-carboxamide] |
| 100 to 1000 | CN(C)CCN(C)c1ccc(Nc2nccc(-n3cc(C(N)=O)c4ccccc43)n2)c(Br)c1 [Compound 78, 1-(2-{2-bromo-4-[(2-dimethylamino-ethyl)-methyl-amino]-phenylamino}-pyrimidin-4-yl)-1H-indole-3-carboxamide] |
| 1 to 10 | Cc1cc(Nc2nccc(-n3cc(C(N)=O)c4ccccc43)n2)ccc1N(C)CCN(C)C [Compound 79, 1-(2-{4-[(2-dimethylamino-ethyl)-methyl-amino]-3-methyl-phenylamino}-pyrimidin-4-yl)-1H-indole-3-carboxamide] |
| 1 to 10 | COc1cc(Nc2nccc(-n3cc(C(N)=O)c4ccccc43)n2)ccc1N(C)CCN(C)C [Compound 80, 1-(2-{4-[(2-dimethylamino-ethyl)-methyl-amino]-3-methoxy-phenylamino}-pyrimidin-4-yl)-1H-indole-3-carboxamide] |
| 1 to 10 | CC(C)Oc1cc(Nc2nccc(-n3cc(C(N)=O)c4ccccc43)n2)ccc1N(C)CCN(C)C [Compound 81, 1-(2-{4-[(2-dimethylamino-ethyl)-methyl-amino]-3-isopropoxy-phenylamino}-pyrimidin-4-yl)-1H-indole-3-carboxamide] |
| 10 to 100 | CN(C)CCN(C)c1ccc(Nc2nccc(-n3cc(C(N)=O)c4ccccc43)n2)cc1Cl [Compound 82, 1-(2-{3-chloro-4-[(2-dimethylamino-ethyl)-methyl-amino]-phenylamino}-pyrimidin-4-yl)-1H-indole-3-carboxamide] |
| 10 to 100 | CN(C)CCCN(C)c1ccc(Nc2nccc(-n3cc(C(N)=O)c4ccccc43)n2)cc1Cl [Compound 83, 1-(2-{3-chloro-4-[(3-dimethylamino-propyl)-methyl-amino]-phenylamino}-pyrimidin-4-yl)-1H-indole-3-carboxamide] |
| 1 to 10 | CN(C)CCN(C)c1ccc(Nc2ncc(F)c(-n3cc(C(N)=O)c4ccccc43)n2)cc1 [Compound 84, 1-(2-{4-[(2-dimethylamino-ethyl)-methyl-amino]-phenylamino}-5-fluoro-pyrimidin-4-yl)-1H-indole-3-carboxamide] |
| 1 to 10 | CN(C)CCN(C)c1ccc(Nc2ncc(Cl)c(-n3cc(C(N)=O)c4ccccc43)n2)cc1 [Compound 85, 1-(5-chloro-2-{4-[(2-dimethylamino-ethyl)-methyl-amino]-phenylamino}-pyrimidin-4-yl)-1H-indole-3-carboxamide] |
| 1 to 10 | COc1cc(Nc2ncc(F)c(-n3cc(C(N)=O)c4ccccc43)n2)ccc1N(C)CCN(C)C [Compound 86, 1-(2-{4-[(2-dimethylamino-ethyl)-methyl-amino]-3-methoxy-phenylamino}-5-fluoro-pyrimidin-4-yl)-1H-indole-3-carboxamide] |
| 1 to 10 | COc1cc(Nc2ncc(Cl)c(-n3cc(C(N)=O)c4ccccc43)n2)ccc1N(C)CCN(C)C [Compound 87, 1-(2-{4-[(2-dimethylamino-ethyl)-methyl-amino]-3-methoxy-phenylamino}-5-chloro-pyrimidin-4-yl)-1H-indole-3-carboxamide] |
| 1 to 10 | CN(CCN1CCCC1)c1ccc(Nc2nccc(-n3cc(C(N)=O)c4ccccc43)n2)cc1 [Compound 90, 1-(2-{4-[methyl-(2-pyrrolidin-1-ylethyl)-amino]-phenylamino}-pyrimidin-4-yl)-1H-indole-3-carboxamide] |
| 1 to 10 | COc1cc(Nc2nccc(-n3cc(C(N)=O)c4ccccc43)n2)ccc1N(C)CCN1CCCC1 [Compound 91] |
| 100 to 1000 | CN(CCN1CCCC1)c1ccc(Nc2nccc(-n3cc(C(N)=O)c4ccccc43)n2)cc1F [Compound 92, 1-(2-{3-fluoro-4-[methyl-(2-pyrrolidin-1-yl-ethyl)-amino]-phenylamino}-pyrimidin-4-yl)-1H-indole-3-carboxamide] |
| 1 to 10 | CN(CCN1CCCC1)c1ccc(Nc2ncc(F)c(-n3cc(C(N)=O)c4ccccc43)n2)cc1 [Compound 93, 1-(5-fluoro-2-{4-[methyl-(2-pyrrolidin-1-yl-ethyl)-amino]-phenylamino}-pyrimidin-4-yl)-1H-indole-3-carboxamide] |
| 1 to 10 | CN(CCN1CCCC1)c1ccc(Nc2ncc(Cl)c(-n3cc(C(N)=O)c4ccccc43)n2)cc1 [Compound 94, 1-(5-chloro-2-{4-[methyl-(2-pyrrolidin-1-yl-ethyl)-amino]-phenylamino}-pyrimidin-4-yl)-1H-indole-3-carboxamide] |
| 10 to 100 | CN(CCN1CCCC1)c1ccc(Nc2ncc(F)c(-n3cc(C(N)=O)c4ccccc43)n2)cc1F [Compound 95, 1-(5-fluoro-2-{3-fluoro-4-[methyl-(2-pyrrolidin-1-yl-ethyl)-amino]-phenylamino}-pyrimidin-4-yl)-1H-indole-3-carboxamide] |
| 1 to 10 | Cc1cc(Nc2ncc(F)c(-n3cc(C(N)=O)c4ccccc43)n2)ccc1N(C)CCN1CCCC1 [Compound 96, 1-(5-fluoro-2-{3-methyl-4-[methyl-(2-pyrrolidin-1-yl-ethyl)-amino]-phenylamino}-pyrimidin-4-yl)-1H-indole-3-carboxamide] |
| 1 to 10 | Cc1cc(Nc2ncc(Cl)c(-n3cc(C(N)=O)c4ccccc43)n2)ccc1N(C)CCN1CCCC1 [Compound 97, 1-(5-chloro-2-{3-methyl-4-[methyl-(2-pyrrolidin-1-yl-ethyl)-amino]-phenylamino}-pyrimidin-4-yl)-1H-indole-3-carboxamide] |
| 1 to 10 | COc1cc(Nc2ncc(F)c(-n3cc(C(N)=O)c4ccccc43)n2)ccc1N(C)CCN1CCCC1 [Compound 98, 1-(5-fluoro-2-{3-methoxy-4-[methyl-(2-pyrrolidin-1-yl-ethyl)-amino]-phenylamino}-pyrimidin-4-yl)-1H-indole-3-carboxamide] |
| 1 to 10 | COc1cc(Nc2ncc(Cl)c(-n3cc(C(N)=O)c4ccccc43)n2)ccc1N(C)CCN1CCCC1 [Compound 99, 1-(5-chloro-2-{3-methoxy-4-[methyl-(2-pyrrolidin-1-yl-ethyl)-amino]-phenylamino}-pyrimidin-4-yl)-1H-indole-3-carboxamide] |
| 1 to 10 | COc1cc(Nc2ncc(C)c(-n3cc(C(N)=O)c4ccccc43)n2)ccc1N(C)CCN1CCCC1 [Compound 100, 1-(2-{3-methoxy-4-[methyl-(2-pyrrolidin-1-yl-ethyl)-amino]-phenylamino}-5-methyl-pyrimidin-4-yl)-1H-indole-3-carboxamide] |
| > 1000 | CNC(=O)c1cn(-c2ccnc(Nc3ccc(N4CCNCC4)cc3Cl)n2)c2ccccc12 [Compound 102, 1-[2-(2-chloro-4-piperazin-1-yl-phenylamino)-pyrimidin-4-yl]-1H-indole-3-carboxmethylamide] |
| 100 to 1000 | CNC(=O)c1cn(-c2ccnc(Nc3ccc(N4CCNCC4)c(Cl)c3)n2)c2ccccc12 [Compound 103, 1-[2-(3-chloro-4-piperazin-1-yl-phenylamino)-pyrimidin-4-yl]-1H-indole-3-carboxmethylamide] |
| 10 to 100 | CNC(=O)c1cn(-c2ccnc(Nc3ccc(C4CCN(C)CC4)cc3)n2)c2ccccc12 [Compound 104, 1-{2-[4-(1-methyl-piperidin-4-yl)-phenylamino]-pyrimidin-4-yl}-1H-indole-3-carboxmethylamide] |
| 10 to 100 | CNC(=O)c1cn(-c2ccnc(Nc3ccc(C4CCNCC4)cc3)n2)c2ccccc12 [Compound 105, 1-[2-(4-piperidin-4-yl-phenylamino)-pyrimidin-4-yl]-1H-indole-3-carboxmethylamide] |
| 10 to 100 | CNC(=O)c1cn(-c2ccnc(Nc3cccc(N4CCNCC4)c3)n2)c2ccccc12 [Compound 107, 1-[2-(3-piperazin-1-yl-phenylamino)-pyrimidin-4-yl]-1H-indole-3-carboxmethylamide] |
| > 1000 | CNC(=O)c1cn(-c2ccnc(Nc3ccc(S(N)(=O)=O)cc3)n2)c2ccccc12 [Compound 108, 1-[2-(4-sulfamoyl-phenylamino)-pyrimidin-4-yl]-1H-indole-3-carboxmethylamide] |

| Structure (SMILES) | IC50 [nM] |
| --- | --- |
| CNC(=O)c1cn(-c2ccnc(Nc3ccc(N4CCNCC4)cc3)n2)c2ccccc12 [Compound 101, 1-[2-(4-piperazin-1-yl-phenylamino)-pyrimidin-4-yl]-1H-indole-3-carboxmethylamide] | 100 to 1000 |

Same assay, conditions: MOLM13 cells, cultured 3 to 6 days, CCK8; read-out: IC50 of the compound for inhibiting cell growth, MOLM13 cells

| Structure (SMILES) | IC50 [nM] |
| --- | --- |
| CNC(=O)c1cn(-c2ccnc(Nc3cccc(N4CCN(C)CC4)c3)n2)c2ccccc12 [Compound 106, 1-{2-[3-(4-methyl-piperazin-1-yl)-phenylamino]-pyrimidin-4-yl}-1H-indole-3-carboxmethylamide] | 10 to 100 |
